In PMC11460632, “Chemical modification of hyaluronan oligosaccharides differentially modulates hyaluronan–hyaladherin interactions” (The Journal of Biological Chemistry, 2024):
“Also recorded” adds a separate entry of the source. Where two headings read alike, the source gives them in different places.

Tests used:
[1] = target: T1, Link_TSG6 (Homo sapiens, UniProt P98066); test: ITC of HA oligosaccharides binding to Link_TSG6; conditions: for N: 0.029 mM Link_TSG6, 0.29 mM oligosaccharide; for % Binding affinity Link_TSG6: Table 6, relative to unmodified oligosaccharide of the same length, by ITC
T1 construct: made in house
T1 sequence (P98066 36-129 limits assumed): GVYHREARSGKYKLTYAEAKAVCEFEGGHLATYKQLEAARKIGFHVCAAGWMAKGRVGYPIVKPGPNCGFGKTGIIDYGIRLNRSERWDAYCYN
Procedure: ITC experiments were performed using a MicroCal PEAQ-ITC instrument (Malvern Instruments). Oligosaccharide stock solutions were prepared at 0.29 mM (in 5 mM MES, pH 6.0) and injected (18 × 2 μl with 120 s spacing between injections) into the cell containing ∼200 μl Link_TSG6 (0.029 mM) in matched buffer at 25 °C. Data were fit to a one site binding model, after subtracting the heats from the last three injections to account for heat of dilution of the oligosaccharide into buffer. Each oligosaccharide was analyzed in four independently performed ITC experiments.

[2] = target: T2, hisCD44_HABD^20–169 (Homo sapiens, UniProt P16070); test: MST of HA oligosaccharides binding to hisCD44_HABD^20–169; conditions: for % of binding to hisCD44_HABD^20–169 compared to the unmodified oligosaccharide of the same length / % HAx^AN: percentage of binding affinity (KB) compared to the unmodified oligosaccharide of the same length / Kd / Fold increase in affinity for CD44_HABD compared to the unmodified oligosaccharide: MST; for % HAx^AN: percentage of binding affinity (KB) compared to the unmodified oligosaccharide of the same length / Kd: Table 5; for Kd: 10 mM Hepes pH 7.5, 150 mM NaCl, 0.05% Tween-20, 25 °C, mean ± SD, three titrations, read-out: KD; for % Binding affinity hisCD44_HABD^20–169: Table 6, relative to unmodified oligosaccharide of the same length, by MST
T2 construct: A novel construct consisting of residues 20 to 169 of human CD44 and an N-terminal six-histidine tag; made in house
T2 sequence (P16070 20-169): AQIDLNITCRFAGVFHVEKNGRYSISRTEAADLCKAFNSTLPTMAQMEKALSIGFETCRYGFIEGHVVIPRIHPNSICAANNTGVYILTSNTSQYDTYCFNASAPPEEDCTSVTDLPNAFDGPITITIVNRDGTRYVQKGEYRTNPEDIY
Procedure: For hisCD44_HABD^20–169, interactions with HA oligosaccharides were assessed using MST. Protein (200 nM) was labeled with 5 μM red-Tris-NTA-650 dye following the manufacturer’s instructions in 10 mM Hepes, pH 7.4, 150 mM NaCl, 0.05% (v/v) Tween-20 (interaction buffer). Stock solutions of HA oligosaccharides (5 mM in interaction buffer) were serially diluted (1:1 in interaction buffer) 16 times before each concentration was mixed with an equal volume of labeled protein (10 nM final concentration hisCD44_HABD^20–169). Samples were loaded into standard glass capillaries (NanoTemper) and thermophoresis measured at 25 °C (with active temperature control) using a Monolith NT.115pico instrument (NanoTemper) running NT Control software (version 1.0.1). All experiments were performed in triplicate and data analyzed with the “KD fit model” in the NT Analysis software (version 2.0.2).

[3] = target: T3, recombinant human TSG-6 (Homo sapiens, UniProt P19827+P98066); test: In vitro HC-transfer assay (IαI + rhTSG-6, Western blot anti-HC1); assay type: biochemical; conditions: 15 μM HA, 1.8 μM IαI, rhTSG-6, 2 h at 37 °C; for Substrate for HC transfer: Table 6; for Activity as substrate for HC transfer (text): Western blot anti-HC1
T3 construct: TSG-6–mediated HC-transfer assays (using full-length TSG6); purchased R&D Systems
T3 sequence (P98066 18-277): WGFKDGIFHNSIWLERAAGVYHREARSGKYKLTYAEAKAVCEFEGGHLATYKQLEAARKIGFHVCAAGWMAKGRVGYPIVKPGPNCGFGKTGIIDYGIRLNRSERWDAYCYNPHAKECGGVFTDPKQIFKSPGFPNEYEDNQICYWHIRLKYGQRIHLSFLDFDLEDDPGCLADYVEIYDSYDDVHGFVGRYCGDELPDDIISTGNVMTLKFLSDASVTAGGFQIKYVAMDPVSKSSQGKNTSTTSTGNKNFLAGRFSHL
T3 sequence (P19827 35-672 limits assumed): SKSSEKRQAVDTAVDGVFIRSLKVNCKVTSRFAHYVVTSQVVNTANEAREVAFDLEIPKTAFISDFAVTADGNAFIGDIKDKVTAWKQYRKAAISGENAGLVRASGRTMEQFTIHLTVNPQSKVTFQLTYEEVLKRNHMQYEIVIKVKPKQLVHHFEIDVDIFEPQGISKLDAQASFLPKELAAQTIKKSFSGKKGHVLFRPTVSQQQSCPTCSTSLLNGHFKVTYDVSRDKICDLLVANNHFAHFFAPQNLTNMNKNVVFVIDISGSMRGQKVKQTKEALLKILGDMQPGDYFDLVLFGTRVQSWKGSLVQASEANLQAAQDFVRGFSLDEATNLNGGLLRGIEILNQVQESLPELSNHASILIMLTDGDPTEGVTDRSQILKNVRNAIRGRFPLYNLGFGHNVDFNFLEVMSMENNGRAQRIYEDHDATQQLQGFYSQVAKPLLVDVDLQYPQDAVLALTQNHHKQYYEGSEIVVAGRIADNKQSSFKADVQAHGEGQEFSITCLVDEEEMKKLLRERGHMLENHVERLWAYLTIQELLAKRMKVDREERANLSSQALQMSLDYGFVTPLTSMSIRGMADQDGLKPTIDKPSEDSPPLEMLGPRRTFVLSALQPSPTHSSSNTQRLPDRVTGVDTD
Procedure: Covalent transfer of HC from IαI onto unmodified and chemically modified HA oligosaccharides was analyzed using the assay described previously ([26]). All reactions were performed using a buffer of 20 mM Hepes, pH 7.5, 150 mM NaCl, and 5 mM MgCl2. In a “standard” assay, HA oligosaccharides were at 15 μM, human IαI ([97]) 1.8 at μM (based on a molecular weight of 180 kDa), and recombinant human TSG-6 (R&D Systems) at 2.8 μM (based on a molecular weight of 35 kDa). Reaction mixtures were analyzed by SDS-PAGE using 4 to 12% bis-tris polyacrylamide gels (Invitrogen). For Western blot analysis, proteins were transferred onto nitrocellulose membrane (GE Healthcare) and incubated with antisera against HC1 (CP7, 1:10,000; ([98])). Bound primary antibody was detected using goat-anti-rabbit IgG conjugated to IR dye (LI-COR Biosciences) and blots imaged using an Odyssey Clx near-IR fluorescence imaging system (LICOR Biosciences).

[4] = Table 4, ITC, 25 °C, 5 mM MES pH 6.0, mean ± SEM, four titrations
[5] = Table 4, ITC, 25 °C, 5 mM MES pH 6.0, mean ± SEM
[6] = Table 4, ITC, 25 °C, 5 mM MES pH 6.0, mean ± SEM, four titrations, read-out: KD

Row | SMILES | % of binding to Link_TSG6 compared to the unmodified oligosaccharide of the same length ([1]; ITC) | Fold increase in affinity for Link_TSG6 compared to the unmodified oligosaccharide ([1]; ITC) | Kd ([1]; ITC, read-out: KD for Link_TSG6) | N [1, 4] | ΔG [1, 5] | ΔH [1, 5] | −TΔS [1, 5] | % Binding affinity Link_TSG6 [1] | % of binding to hisCD44_HABD^20–169 compared to the unmodified oligosaccharide of the same length [2] | % HAx^AN: percentage of binding affinity (KB) compared to the unmodified oligosaccharide of the same length [2] | Kd [2] | % Binding affinity hisCD44_HABD^20–169 [2] | Substrate for HC transfer [3] | Activity as substrate for HC transfer (text) [3] | Kd [1, 6] | Fold increase in affinity for CD44_HABD compared to the unmodified oligosaccharide [2] | Fold reduction in affinity for Link_TSG6 compared to the unmodified oligosaccharide ([1]; ITC)
1 | COc1ccc(C(=O)O)c(NC[C@H](NC(C)=O)[C@@H](O[C@@H]2O[C@H](C(=O)O)[C@@H](O[C@@H]3O[C@H](CO)[C@@H](O)[C@H](O[C@@H]4O[C@H](C(=O)O)[C@@H](O[C@@H]5O[C@H](CO)[C@@H](O)[C@H](O[C@@H]6O[C@H](C(=O)O)[C@@H](O)[C@H](O)[C@H]6O)[C@H]5NC(C)=O)[C@H](O)[C@H]4O)[C@H]3NC(C)=O)[C@H](O)[C@H]2O)[C@H](O)[C@H](O)CO)c1 [HA6-2A4MBA] | 238% | 2.4 fold | 460 nM | 1.00 ± 0.02 | -8.64 ± 0.04 kcal/mol | -10.07 ± 0.28 kcal/mol | 1.44 ± 0.25 kcal•mol^a1 | 238% | 52% | 52% | 198 ± 29 µM | 52% | Yes | weak substrates; also recorded: could become covalently coupled to an HC |  |  | 
2 | CC(=O)N[C@H]1[C@H](O[C@H]2[C@H](O)[C@@H](O)[C@H](O[C@H]3[C@H](O)[C@@H](CO)O[C@@H](O[C@H]4[C@H](O)[C@@H](O)[C@H](O[C@H]5[C@H](O)[C@@H](CO)O[C@@H](O[C@H]6[C@H](O)[C@@H](O)[C@H](O[C@@H]([C@H](O)[C@H](O)CO)[C@H](CNc7ccc8c(c7)CCC8)NC(C)=O)O[C@@H]6C(=O)O)[C@@H]5NC(C)=O)O[C@@H]4C(=O)O)[C@@H]3NC(C)=O)O[C@@H]2C(=O)O)O[C@H](CO)[C@@H](O)[C@@H]1O[C@@H]1O[C@H](C(=O)O)[C@@H](O)[C@H](O)[C@H]1O [HA8-5AI] | 207% |  |  | 0.97 ± 0.02 | -9.34 ± 0.11 kcal/mol | -7.43 ± 0.25 kcal/mol | −1.91 ± 0.33 kcal•mol^a1 | 207% | 96% | 96% | 54 ± 10 µM | 96% | Yes |  | 150 ± 30 nM |  | 
3 | CC(=O)N[C@H]1[C@H](O[C@H]2[C@H](O)[C@@H](O)[C@H](O[C@H]3[C@H](O)[C@@H](CO)O[C@@H](O[C@H]4[C@H](O)[C@@H](O)[C@H](O[C@@H]([C@H](O)[C@H](O)CO)[C@H](CNc5ccc6c(c5)CCC6)NC(C)=O)O[C@@H]4C(=O)O)[C@@H]3NC(C)=O)O[C@@H]2C(=O)O)O[C@H](CO)[C@@H](O)[C@@H]1O[C@@H]1O[C@H](C(=O)O)[C@@H](O)[C@H](O)[C@H]1O [HA6-5AI] | ~162% |  |  | 1.03 ± 0.02 | -8.43 ± 0.08 kcal/mol | -7.46 ± 0.37 kcal/mol | −0.96 ± 0.42 kcal•mol^a1 | 162% | 133% | 133% | 77 ± 12 µM | 133% | No | No HC•HA6 complexes were observed | 680 ± 80 nM | 1.3 fold | 
4 | COc1ccc(C(=O)O)c(NC[C@H](NC(C)=O)[C@@H](O[C@@H]2O[C@H](C(=O)O)[C@@H](O[C@@H]3O[C@H](CO)[C@@H](O)[C@H](O[C@@H]4O[C@H](C(=O)O)[C@@H](O[C@@H]5O[C@H](CO)[C@@H](O)[C@H](O[C@@H]6O[C@H](C(=O)O)[C@@H](O[C@@H]7O[C@H](CO)[C@@H](O)[C@H](O[C@@H]8O[C@H](C(=O)O)[C@@H](O)[C@H](O)[C@H]8O)[C@H]7NC(C)=O)[C@H](O)[C@H]6O)[C@H]5NC(C)=O)[C@H](O)[C@H]4O)[C@H]3NC(C)=O)[C@H](O)[C@H]2O)[C@H](O)[C@H](O)CO)c1 [HA8-2A4MBA] | 21% |  |  | 1.04 ± 0.08 | -8.23 ± 0.40 kcal/mol | -8.06 ± 1.55 kcal/mol | −0.16 ± 1.94 kcal•mol^a1 | 21% | 141% | 141% | 36 ± 9 µM | 141% | Yes |  | 1460 ± 960 nM | 1.4 fold | 4.8 fold
5 | CC(=O)N[C@H]1[C@H](O[C@H]2[C@H](O)[C@@H](O)[C@H](O[C@H]3[C@H](O)[C@@H](CO)O[C@@H](O[C@H]4[C@H](O)[C@@H](O)[C@H](O[C@H]5[C@H](O)[C@@H](CO)O[C@@H](O[C@H]6[C@H](O)[C@@H](O)[C@H](O[C@@H]([C@H](O)[C@H](O)CO)[C@H](CNc7cccc8c7CCC8)NC(C)=O)O[C@@H]6C(=O)O)[C@@H]5NC(C)=O)O[C@@H]4C(=O)O)[C@@H]3NC(C)=O)O[C@@H]2C(=O)O)O[C@H](CO)[C@@H](O)[C@@H]1O[C@@H]1O[C@H](C(=O)O)[C@@H](O)[C@H](O)[C@H]1O [HA8-4AI] |  |  |  | 1.01 ± 0.02 | -9.15 ± 0.16 kcal/mol | -7.02 ± 0.40 kcal/mol | −2.13 ± 0.53 kcal•mol^a1 | 141% | 37% | 37% | 139 ± 43 µM | 37% | Yes |  | 220 ± 50 nM |  | 
